The target of this test is OX2R (Homo sapiens (Human), UniProt O43614). Briefly: radioligand binding assay, membranes from CHO cells expressing OX2 receptor. Particulars: CHO cell membranes.

The structures appear in SMILES notation.

This passage reports Ki results from patent publication US8703770B2, “Pyridazine carboxamide orexin receptor antagonists” (Merck Sharp & Dohme Corp., priority 2008, dated 2014).

By Ki is commonly meant a dissociation constant, usually derived from enzyme kinetics or from competition with a known ligand. Low values mean higher affinity, high ones lower affinity.

OX2R, sequence (O43614 whole entry): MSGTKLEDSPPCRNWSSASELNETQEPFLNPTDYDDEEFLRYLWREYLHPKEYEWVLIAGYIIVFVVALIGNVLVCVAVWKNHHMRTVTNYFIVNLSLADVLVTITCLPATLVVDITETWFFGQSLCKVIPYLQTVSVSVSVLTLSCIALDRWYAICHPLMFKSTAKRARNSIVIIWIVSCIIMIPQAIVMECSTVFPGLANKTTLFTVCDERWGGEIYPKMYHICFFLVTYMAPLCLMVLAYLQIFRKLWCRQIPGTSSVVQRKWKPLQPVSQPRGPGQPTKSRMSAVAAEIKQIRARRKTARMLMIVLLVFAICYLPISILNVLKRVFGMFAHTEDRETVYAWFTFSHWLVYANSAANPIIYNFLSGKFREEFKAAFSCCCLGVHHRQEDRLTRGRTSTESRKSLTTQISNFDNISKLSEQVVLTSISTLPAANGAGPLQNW

In turn, `COc1ccc(CNC(=O)c2cc(-c3cc(C)cc(C)c3)nnc2-c2cnn(C)c2)cc1OC` [Compound 1-5, N-(3,4-dimethoxybenzyl)-6-(3,5-dimethylphenyl)-3-(1-methyl-1H-pyrazol-4-yl)pyridazine-4-carboxamide] yielded an inhibition constant (Ki) of 3.3 nM.
Consider `COc1ccc(CNC(=O)c2cc(-c3cc(C)cc(Cl)c3)nnc2N2CCOCC2)cc1OC` [Compound 2-2, 6-(3-chloro-5-methylphenyl)-N-(3,4-dimethoxybenzyl)-3-morpholin-4-ylpyridazine-4-carboxamide], for which affinity was put at a Ki of 0.96 nM.
